Measured values from article PMC9879991, “Biomolecular condensates formed by designer minimalistic peptides” (Nature Communications, 2023).
No end group written: not given here.

Legend:
[1] = molecular target: T1, GFP (Aequorea victoria, UniProt P42212); test: Encapsulation efficiency of peptide droplets, GFP payload; format: physicochemical; details: C initial 50 µg/ml, 20 mM peptide; for %EE: 20 mM Tris + 0.2 M NaCl pH 8, 15,000 g 10 min, supernatant fluorescence Ex 395/Em 509 nm
T1 construct: purchased Abcam (purchased from Zotal)
Description: (§1) Next, we studied how peptide composition affects the encapsulation efficiency of the droplets by using GFP, rhodamine B, and fluorescein as fluorescent payload model systems (Fig. 4). We analyzed the encapsulation efficiency of the fluorescent payloads by using both confocal microscopy and absorbance measurements of the payloads in the dilute vs. the condensed phase (Fig. 4a–c). […] WGR-1 has the highest EE of fluorescein. In addition to π-π interactions, WGR-1 might form hydrogen bonding with the hydroxyl groups or electrostatic interactions with the deprotonated carboxylic acid of the dye.
(§2) Stock solutions (1 mM) of the fluorescein and rhodamine B dye molecules were prepared in 20 mM Tris buffer. Coacervate solutions of 20 mM peptide were prepared in 20 mM Tris + 0.2 M NaCl at pH 8. From these, a volume of 148.5 µl was mixed with 1.5 µl of dye solution in a 1.5 ml Eppendorf tube and pipetted. After 10 min the samples were centrifuged at 15,000 × g for 10 min. A volume of 120 μl from the supernatant was collected and vortexed and then the absorbance of 35 μl triplicates was measured (at λ = 490 nm for fluorescein and λ = 555 nm for RhB) in a 384 well black plate by Biotek H1 synergy plate reader (purchased from Lumitron, Israel). For GFP, a 7.5 µl of 20 mM Tris buffer to a 7.5 μl GFP aliquot from the purchased stock solution. The 15 µl of GFP solution was added to 135 µl of peptide solution and was mixed in a 1.5 ml Eppendorf tube and pipetted. The concentration of GFP at the supernatant was measured via fluorescence. All experiments were performed in triplicate. The concentration of the supernatant solutions determinate by calibration curves. Imaging was made to 30 μl of uncentrifuged samples. Efficiency of encapsulation (%EE) was calculated using Eq. 2. 2 %EE=CT−Csup/CT

[2] = solution NMR
Procedure: pKa values were determined by following the chemical shifts of Trp1-Hα and Trp1-Hβ at pH values of 6.0, 7.0, 7.5, 8.0 and
9.0. The 10 obtained chemical shifts were fitted to the Henderson-Hasselbach equation with the assumption that peak
position is a weighted average of the two end-point chemical shifts; optimization parameters were the two end-point shifts
(representing fully ionized and fully deionized forms of the N-terminal amino group of the peptide. Errors were determined
by Monte Carlo simulations with a measurement error of 0.01 ppm for all chemical shifts.

[3] = Turbidity analysis of peptide LLPS at 20 mM at varying pH; format: physicochemical; details: mean, Figure S8, for NMR experiment
Procedure: 150 μl of 20 mM peptide solutions were prepared in 20 mM Tris buffer. The pH was adjusted to the desired value of 6, 7, 8, 9, 10, and 11 then the turbidity of 35 μl was measured in triplicates at λ = 500 nm using a BioTek H1 synergy plate reader (purchased from Lumitron, Israel).
Supplementary Figure 7. CD analysis of peptides at 1 mM with and without NaCl.
Supplementary Figure 8. a. Turbidity analysis of peptide LLPS at a concentration of 20 mM at varying pH values. WGR-10 contains a Pro/Gln substitution. Each point represents an average of n=3, data are presented as mean values +/- SD b. Optical microscopy images of peptides at 20 mM at pH
10. Scale bar=50 μm. Source data are provided as a Source Data file. […]

[4] = Encapsulation efficiency of peptide droplets, rhodamine B payload; format: physicochemical; details: C initial 10 µM, 20 mM peptide; for %EE: 20 mM Tris + 0.2 M NaCl pH 8, 15,000 g 10 min, supernatant absorbance 555 nm
Description: as §1, §2

[5] = Turbidity analysis of WGR-1 with and without 0.5% FITC-labeled peptide; format: physicochemical; details: Tris buffer pH 8, 0.2 M NaCl, mean of n=3
[6] = Phase diagram in citrate / tris / ammonium bicarbonate buffers; format: physicochemical; details: 20 mM citrate (pH 3-7)/tris (pH 7-9)/ammonium bicarbonate (pH 9-12), 0.2 M NaCl, room temperature
Procedure: Since this analysis is highly sensitive to pH fluctuation, we also created phase diagrams for all peptides using three different buffers that are optimized for specific pH range: citrate buffer for pH 3–7, tris buffer for pH 7–9 and ammonium bicarbonate for pH 9–12 (Supplementary Fig. 1). While the trend in these phase diagrams is similar to that obtained only in tris buffer, the critical pH for LLPS is lower in citrate buffer for all LLPS-promoting peptides (Supplementary Fig. 1).
150 μl of 5 mM, 8 mM, 10 mM, 15 mM, 20 mM, and 30 mM peptide solutions were prepared in either 20 mM tris buffer or 20 mM of the following three buffers: citrate buffer for pH 3–7 tris buffer for pH 7–9 and ammonium bicarbonate for pH 9–12, with 0.2 M NaCl. The pH was increased gradually until a turbidity appeared and measured as described below. All measurements were performed at room temperature. Data points represent averages of three independent measurements. Turbidity of 35 μl samples was estimated in triplicates from sample absorbance at λ = 500 nm as described below.
Supplementary Figure 1. Phase diagram of the peptides as a function of peptide concentration and pH, in different buffers: citrate buffer for pH 3-7, tris buffer for pH 7-9, and ammonium bicarbonate buffer for pH 9-12. 0.2 M NaCl was added to all samples, measurements were obtained at room […]
temperature. […] Values represent average pH of n=3 independent measurements, data are presented as mean values +/- SD. […]

## WGRGRGRGWPGVGY [WGR-1]
[1]; replicate 1, given as fraction
  %EE: 0.8616
[1]; replicate 2, given as fraction
  %EE: 0.9526
[1]; replicate 3, given as fraction
  %EE: 0.9328
[1]; 20 mM Tris + 0.2 M NaCl pH 8, supernatant fluorescence, average of replicates, in percent
  Encapsulation efficiency (EE): 91.5647%
[2]; Trp1-Hα and Trp1-Hβ shifts at pH 6.0, 7.0, 7.5, 8.0, 9.0, Henderson-Hasselbach fit, error by Monte Carlo
  pKa of the N-terminal amine group: 7.50 ± 0.01
[2]; pH-induced chemical shift changes
  pKa of the Tyr14 phenolic ring: ~ 10
[3]; pH 6
  Turbidity as asorbance at 500 nm: 0.0085
[3]; pH 7
  Turbidity as asorbance at 500 nm: 0.019
[3]; pH 8
  Turbidity as asorbance at 500 nm: 0.01867
[3]; pH 9
  Turbidity as asorbance at 500 nm: 0.03567
[3]; pH 10
  Turbidity as asorbance at 500 nm: 1.253
[3]; pH 11
  Turbidity as asorbance at 500 nm: 1.988
[4]; replicate 1, given as fraction
  %EE: 0.9106
[4]; replicate 2, given as fraction
  %EE: 0.9029
[4]; replicate 3, given as fraction
  %EE: 0.8168
[4]; 20 mM Tris + 0.2 M NaCl pH 8, supernatant absorbance 555 nm, mean of n=3, in percent
  Encapsulation efficiency (EE): 87.6774%
[5]; peptide concentration 10 (mM)
  Turbidity as asorbance at 350 nm: 0.3393
[5]; peptide concentration 20 (mM)
  Turbidity as asorbance at 350 nm: 2.135
other
  differential NaCl-induced change (20 vs 5 mM), average: 3.5 Hz
[6]; 8 mM peptide, replicate 1
  pH at which turbidity (LLPS) appears: 8.43
[6]; 8 mM peptide, replicate 2
  pH at which turbidity (LLPS) appears: 8.47
[6]; 8 mM peptide, replicate 3
  pH at which turbidity (LLPS) appears: 8.55
[6]; 10 mM peptide, mean of n=3
  pH at which turbidity (LLPS) appears: 6.79
[6]; 10 mM peptide, replicate 1
  pH at which turbidity (LLPS) appears: 6.32
[6]; 10 mM peptide, replicate 2
  pH at which turbidity (LLPS) appears: 7.04
[6]; 10 mM peptide, replicate 3
  pH at which turbidity (LLPS) appears: 7.01
[6]; 15 mM peptide, mean of n=3
  pH at which turbidity (LLPS) appears: 6.34
[6]; 15 mM peptide, replicate 1
  pH at which turbidity (LLPS) appears: 6.41
[6]; 15 mM peptide, replicate 2
  pH at which turbidity (LLPS) appears: 6.41
[6]; 15 mM peptide, replicate 3
  pH at which turbidity (LLPS) appears: 6.2
[6]; 20 mM peptide, mean of n=3
  pH at which turbidity (LLPS) appears: 4.96
[6]; 20 mM peptide, replicate 1
  pH at which turbidity (LLPS) appears: 5.1
[6]; 20 mM peptide, replicate 2
  pH at which turbidity (LLPS) appears: 4.89
[6]; 20 mM peptide, replicate 3
  pH at which turbidity (LLPS) appears: 4.89
[6]; 30 mM peptide, replicate 1
  pH at which turbidity (LLPS) appears: 4.78
[6]; 30 mM peptide, replicate 2
  pH at which turbidity (LLPS) appears: 4.27
[6]; 30 mM peptide, replicate 3
  pH at which turbidity (LLPS) appears: 4.52
